Experiment [1] has as its system Barnyard grass (BG). Kind of experiment: Post-emergence herbicide test. In kind it is in vivo. To be noted: Echinochloa crus-galli, 336 h, two weeks after treatment; for pest or weed control at 8966.8 g/ha: 8 lb/acre. Put shortly:
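Greenhouse pot-grown barnyard grass seedlings sprayed post-emergence at 8 lbs active compound per acre (some at 4 lbs/acre) in 38 gallons per acre, then sub-irrigated. Injury or control rated visually two weeks after treatment.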

Experiment [2] concerns Yellow foxtail grass (YF). Kind of experiment: Post-emergence herbicide test. To be noted: Setaria, 336 h, two weeks after treatment; for pest or weed control at 8966.8 g/ha: 8 lb/acre. In kind it is in vivo, Setaria glauca. Put shortly:
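Visual rating of injury/control made 2 weeks post-spray. Seedlings at a uniform growth stage in soil-filled pots received a hood spray of 8 lbs/acre active compound, 38 gallons/acre volume, with a 4 lbs/acre rate also formulated. Watering was by sub-irrigation only.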

Experiment [3] concerns Amaranth pigweed (PW). Kind of experiment: Post-emergence herbicide test. The format is in vivo, Amaranthus retroflexus. As to conditions: 336 h, two weeks after treatment; for pest or weed control at 8966.8 g/ha: 8 lb/acre. In a few lines:
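Visual injury or control ratings were made two weeks after spraying, with greenhouse watering by sub-irrigation only. Treatment was post-emergence, when pigweed seedlings had 1 or 2 true leaves, at 8 lbs active compound per acre (4 lbs/acre formulations also made) in a 38 gallons-per-acre spray volume.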

Experiment [4] deals with Barnyard grass (BG). Description: Pre-emergence herbicide test. In kind it is in vivo. To be noted: Echinochloa crus-galli, 336 h, 8 lb/acre, two weeks after treatment. In a few lines:
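Greenhouse pre-emergence spray test: pots seeded one day before treatment received compound at rates of 8 or 4 lb/acre (38 gal/acre). Visual injury/control scores for Echinochloa crus-galli taken at two weeks, with watering by sub-irrigation only.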

In experiment [5] the test system is Corn (CN). Kind of experiment: Pre-emergence herbicide test. As to conditions: Zea mays, 336 h, 8 lb/acre, two weeks after treatment. The format is in vivo. Put shortly: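 Visual injury/control ratings were made 2 weeks post-spray on corn pots seeded (4 seeds, seed-diameter depth) the day before treatment. Application was a belt-hood spray of 38 gal/acre delivering 8 lbs active per acre, with a 4 lbs/acre rate also formulated. Watering was by sub-irrigation throughout.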

For experiment [6], the system named is Cotton (CT). Description: Post-emergence herbicide test. As to conditions: Gossypium hirsutum, post-emergence, 336 h, two weeks after treatment; for pest or weed control at 8966.8 g/ha: 8 lb/acre. In kind it is in vivo, Gossypium hirsutum var. DPL smooth leaf. In a few lines: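 This greenhouse post-emergence test measured how well spray treatments controlled cotton. Seedlings of Gossypium hirsutum var. DPL smooth leaf, with expanded cotyledons and a first true leaf 1' in length, were sprayed with 50 ml formulations in a belt-fed spray hood. They were then returned to the greenhouse and watered only by sub-irrigation. Injury was scored visually as % control after two weeks.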

Experiment [7] concerns Crabgrass (CG). Kind of experiment: Post-emergence herbicide test. In kind it is in vivo, Digitaria sanquinalis. To be noted: Digitaria sanguinalis, post-emergence, 336 h, two weeks after treatment; for pest or weed control at 8966.8 g/ha: 8 lb/acre. In a few lines:
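Crabgrass (Digitaria sanquinalis) was surface seeded individually in 3' plastic pots of potting soil, covered with screened soil, and watered by sub-irrigation in greenhouse trays. Planting was staggered so seedlings reached the target stage together. Post-emergence sprays were applied in a hood with a removable belt and fixed nozzle, and control was visually rated two weeks after treatment.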

The test system of experiment [8] is Johnson grass (JG). Kind of experiment: Pre-emergence herbicide test. In kind it is in vivo, Sorgum helepense. As to conditions: Sorghum halepense, 336 h, 8 lb/acre, two weeks after treatment. Put shortly: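 Visual injury or control rating two weeks post-treatment, after pre-emergence spray of 8 or 4 lbs active per acre (38 gal/acre) onto pots sown the previous day. Greenhouse watering by sub-irrigation only.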

The test system of experiment [9] is Cotton (CT). Kind of experiment: Pre-emergence herbicide test. To be noted: Gossypium hirsutum, 336 h, 8 lb/acre, two weeks after treatment. In kind it is in vivo, Gossypium hirsutum var. DPL smooth leaf. In a few lines:
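Visual injury/control ratings were taken at two weeks post-spray. Pots seeded a day earlier received compound pre-emergence at 8 lbs/acre, or 4 lbs/acre, in a 38 gallon/acre spray volume, and were then held in the greenhouse, watered only from below.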

For experiment [10], the system named is Bean (BN). Kind of experiment: Post-emergence herbicide test. The format is in vivo, Phaseolus vulgaris var. Black Valentine. As to conditions: Phaseolus vulgaris, post-emergence, 336 h, two weeks after treatment; for pest or weed control at 8966.8 g/ha: 8 lb/acre. In a few lines: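 Bean seedlings (Phaseolus vulgaris var. Black Valentine) were grown in potting soil in 3' pots until the primary leaves expanded. They were then sprayed under a hood with a removable belt and fixed nozzle, using 50 ml formulations. Afterward they were returned to the greenhouse and watered only by sub-irrigation. Percent control was judged visually two weeks after treatment.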

Experiment [11] relates to Amaranth pigweed (PW). Kind of experiment: Pre-emergence herbicide test. As to conditions: 336 h, 8 lb/acre, two weeks after treatment. The format is in vivo, Amaranthus retroflexus. Put shortly: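 Visual injury or control ratings were made at two weeks on pre-emergence pots, sub-irrigated in the greenhouse. Seeds were sown a day before a hood spray delivering 8 lbs/acre (or 4 lbs/acre) of compound in 38 gallons per acre.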

For experiment [12], the system named is variety of crops and weed species. Kind of experiment: Pre- and post-emergence herbicide tests, overall assessment of Tables III-VI. In kind it is in vivo. As to conditions: data of Tables III-VI. As for the experimental part: All crop and weed species were planted individually in 3' plastic pots containing potting soil. Four seeds each of corn, cotton, and snapbeans were seeded to a depth equal to the diameter of the seed. All other species were surface seeded and sprinkled with screened soil in an amount sufficient to cover the seed. Immediately after planting, all pots were watered by sub-irrigation in greenhouse trays. Pots for the pre-emergence phase were seeded one day before treatment.
Compounds were tested at rates of application equivalent to 8 lbs. of actual compound per acre in a spray volume of 38 gallons per acre. Spray hood constants required to deliver the above volume are as follows:
Two weeks after treatment, pre- and post-emergence injury or control was visually rated, and the results were as shown in the following tables. Pre-emergence data are provided in TABLE III and post-emergence data are provided in TABLE IV, for compounds having the formula illustrated in TABLE I. Correspondingly, pre-emergence and post-emergence data, respectively, are set forth in TABLES V AND VI, for compounds having the formula illustrated in TABLE II.

Experiment [13] deals with Turnip (TP). Description: Pre-emergence herbicide test. The format is in vivo, Brassica sp. To be noted: Brassica rapa, pre-emergence, 336 h; 8 lb/acre; two weeks after treatment. In a few lines:
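In this pre-emergence greenhouse test, turnip was seeded on the surface of potting soil in 3' plastic pots, lightly covered with screened soil, and watered from below. One day later the pots were sprayed in a belt-fed spray hood. Watering continued only by sub-irrigation, and percent control was visually scored two weeks after treatment.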

Experiment [14] concerns Turnip (TP). Description: Post-emergence herbicide test. To be noted: Brassica rapa, post-emergence, 336 h, two weeks after treatment; for pest or weed control at 8966.8 g/ha: 8 lb/acre. The format is in vivo, Brassica sp. Put shortly:
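A greenhouse post-emergence herbicide test on turnip. Seeds were sown on the surface of potting soil in 3' plastic pots, lightly covered with screened soil and watered from below. Planting was timed so seedlings had 1 or 2 true leaves above the cotyledons at spraying, done in a hood with a fixed nozzle. Control or injury was scored by eye after two weeks.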

Experiment [15] relates to Bean (BN). Description: Pre-emergence herbicide test. The format is in vivo, Phaseolus vulgaris var. Black Valentine. As to conditions: Phaseolus vulgaris, 336 h, 8 lb/acre, two weeks after treatment. In a few lines: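 Visual injury/control ratings were taken two weeks post-spray on sub-irrigated Phaseolus vulgaris var. Black Valentine. Pots were sown a day before treatment. Pre-emergence spray delivered 8 lbs actual compound per acre (or 4 lbs/acre) at 38 gallons per acre.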

In experiment [16] the test system is Johnson grass (JG). Description: Post-emergence herbicide test. In kind it is in vivo, Sorgum helepense. To be noted: Sorghum halepense, 336 h, two weeks after treatment; for pest or weed control at 8966.8 g/ha: 8 lb/acre. Put shortly:
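Visual injury or control scores taken 2 weeks after a post-emergence spray of pot-grown plants. Application was 8 lbs/acre (or 4 lbs/acre) in 38 gal/acre. Plants were held in the greenhouse with sub-irrigation only.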

The test system of experiment [17] is Crabgrass (CG). Kind of experiment: Pre-emergence herbicide test. In kind it is in vivo, Digitaria sanquinalis. As to conditions: Digitaria sanguinalis, pre-emergence, 336 h; 8 lb/acre; two weeks after treatment. In a few lines: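 Crabgrass (Digitaria sanquinalis) was surface seeded in 3' plastic pots of potting soil, covered with screened soil, and watered by sub-irrigation in greenhouse trays. Pots were seeded one day before spraying in a hood with a moving belt and fixed nozzle. Plants stayed in the greenhouse on sub-irrigation, and pre-emergence control was rated visually two weeks after treatment.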

The subject of experiment [18] is Corn (CN). Description: Post-emergence herbicide test. The format is in vivo. To be noted: Zea mays, 336 h, two weeks after treatment; for pest or weed control at 8966.8 g/ha: 8 lb/acre. In a few lines:
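Greenhouse seedlings grown in potting soil and sprayed post-emergence at 8 lbs compound/acre (formulations also made for 4 lbs/acre) in 38 gallons/acre spray volume. Watering by sub-irrigation only. Injury or control rated visually two weeks after treatment.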

Experiment [19] concerns Yellow foxtail grass (YF). Kind of experiment: Pre-emergence herbicide test. In kind it is in vivo, Setaria glauca. To be noted: Setaria, 336 h, 8 lb/acre, two weeks after treatment. Put shortly:
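Visual rating of injury/control made two weeks after a pre-emergence spray of 8 or 4 lbs active per acre (38 gal/acre) onto pots seeded the previous day. Greenhouse watering by sub-irrigation only.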

These results are taken from US4175081A, “5-Substituted thiadiazole ureas” (priority 1977, dated 1979).

Take `Cc1nnc(NC(=O)N(C)C)s1` [Example 19]: the pest or weed control at 8966.8 g/ha stood at 10% in the experiment with Barnyard grass (BG) [1]; 20% in experiment [2]; 40% in the experiment with Amaranth pigweed (PW) [3]; 10% in the experiment on Barnyard grass (BG) [4]; 80% with Corn (CN) [5]; 40% in the experiment with Cotton (CT) [6]. Further, the pest or weed control at 8966.8 g/ha with Crabgrass (CG) [7] came to 20%; with Johnson grass (JG) [8], 20%; with Cotton (CT) [9], 30%; in the experiment with Bean (BN) [10] it was 50%; in the experiment with Amaranth pigweed (PW) [11], 10%; in the experiment with Turnip (TP) [13], 20%. Also, the pest or weed control at 8966.8 g/ha in the experiment with Turnip (TP) [14] was found to be 50%; with Bean (BN) [15], 80%; with Johnson grass (JG) [16], 20%; in the experiment with Crabgrass (CG) [17], 10%; in the experiment with Corn (CN) [18], 20%. For the same compound, the “herbicidal effectiveness / selectivity, in words” value in experiment [12] is “The converse of this relationship”.

For `CNC(=O)Nc1nnc(SC)s1` [Example 26], the pest or weed control at 2241.7 g/ha with Barnyard grass (BG) [1] (2 lb/acre) stood at 10%; in the experiment on Amaranth pigweed (PW) [3] (2 lb/acre) it was 90%; in the experiment with Cotton (CT) [6] (2 lb/acre), 100%; in the experiment with Bean (BN) [10] (2 lb/acre) it was 100%; in the experiment with Turnip (TP) [14] (2 lb/acre), 60%. Moreover, the pest or weed control at 4483.4 g/ha with Barnyard grass (BG) [1] (4 lb/acre) was 100%; in experiment [2] (4 lb/acre), 100%; in the experiment with Amaranth pigweed (PW) [3] (4 lb/acre), 100%; with Cotton (CT) [6] (4 lb/acre), 90%; with Crabgrass (CG) [7] (4 lb/acre) it was 100%; with Bean (BN) [10] (4 lb/acre) it was 100%. The pest or weed control at 4483.4 g/ha with Turnip (TP) [14] (4 lb/acre) stood at 100%; with Johnson grass (JG) [16] (4 lb/acre) it was 80%; in the experiment on Corn (CN) [18] (4 lb/acre), 100%. Also, the pest or weed control at 8966.8 g/ha in the experiment on Barnyard grass (BG) [1] was determined as 60%; in [2], 90%; in the experiment with Amaranth pigweed (PW) [3], 100%; in the experiment with Barnyard grass (BG) [4], 50%; in the experiment with Corn (CN) [5], 50%; in the experiment on Cotton (CT) [6], 90%. Moreover, the pest or weed control at 8966.8 g/ha was found to be 100% with Crabgrass (CG) [7]; 100% in the experiment with Cotton (CT) [9]; 100% with Bean (BN) [10]; 30% with Turnip (TP) [13]; 100% in the experiment with Turnip (TP) [14]; 30% in the experiment on Bean (BN) [15]. For the same compound, the pest or weed control at 8966.8 g/ha was determined as 100% with Johnson grass (JG) [16], 100% with Crabgrass (CG) [17] and 40% in the experiment with Corn (CN) [18]. Also, the pest or weed control in [2] (2 lb/acre) amounted to 60%; in the experiment with Crabgrass (CG) [7] (2 lb/acre), 50%; in the experiment with Johnson grass (JG) [16] (2 lb/acre), 30%; in the experiment with Corn (CN) [18] (2 lb/acre) it was 20%. In addition, the “herbicidal effectiveness / selectivity, in words” value in experiment [12] was “extremely effective when applied to a variety of crops and weed species”.

As for `O=C(Nc1ccc(Cl)c(Cl)c1)Nc1nnc(C(F)(F)F)s1` [Example 16], the pest or weed control at 8966.8 g/ha in the experiment with Barnyard grass (BG) [1] amounted to 20%; in experiment [2], 20%; with Barnyard grass (BG) [4], 10%; with Corn (CN) [5], 30%; with Cotton (CT) [6], 20%; in the experiment on Crabgrass (CG) [7], 20%. Also, the pest or weed control at 8966.8 g/ha in the experiment with Johnson grass (JG) [8] is 10%; with Cotton (CT) [9] it was 30%; with Bean (BN) [10] it was 40%; with Turnip (TP) [13], 30%; in the experiment on Turnip (TP) [14], 40%; in experiment [19] it was 10%. The pest or weed control at 8966.8 g/ha with Bean (BN) [15] was 80%; with Johnson grass (JG) [16] it was 20%; in the experiment on Crabgrass (CG) [17], 10%; in the experiment on Corn (CN) [18], 20%. Also, the “herbicidal effectiveness / selectivity, in words” value in experiment [12] was “more selective when applied to a certain crop or weed species”.
